Measurements reported in ChEMBL document CHEMBL4680118, “Cerpegin-derived furo[3,4-c]pyridine-3,4(1H,5H)-diones enhance cellular response to interferons by de novo pyrimidine biosynthesis inhibition” (Eur J Med Chem, 2020).
Active and inactive are the calls of the source. The calls are words filed in the database; no cut-off is given here.

Biological target: T1, Dihydroorotate dehydrogenase (quinone), mitochondrial (Homo sapiens, UniProt Q02127)
Test: Inhibition of DHODH in human HEK-293 cells transfected with ISRE-luciferase reporter gene assessed as increase in IFN-alpha mediated cellular response at 6 to 178 uM after 24 hrs by luciferase reporter gene assay
Type: cell-based
Settings: HEK293, dose 6-178 µM

T1 sequence (Q02127 whole entry): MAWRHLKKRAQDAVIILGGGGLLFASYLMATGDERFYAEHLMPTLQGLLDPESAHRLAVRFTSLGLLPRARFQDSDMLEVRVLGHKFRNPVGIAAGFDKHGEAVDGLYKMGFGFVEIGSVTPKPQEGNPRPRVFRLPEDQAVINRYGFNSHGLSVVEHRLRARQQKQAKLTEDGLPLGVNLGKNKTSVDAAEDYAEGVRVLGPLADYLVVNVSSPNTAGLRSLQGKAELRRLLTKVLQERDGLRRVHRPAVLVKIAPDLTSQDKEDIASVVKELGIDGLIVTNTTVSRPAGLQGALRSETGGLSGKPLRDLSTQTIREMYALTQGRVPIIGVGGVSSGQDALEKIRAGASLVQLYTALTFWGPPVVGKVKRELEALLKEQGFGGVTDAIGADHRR

Row | Compound | Activity
1 | CC1(c2ccccc2)OC(=O)c2c1ccn(C1CC1)c2=O (stereo not given) | Active

Biological target: T1, Dihydroorotate dehydrogenase (quinone), mitochondrial
Test: Inhibition of DHODH in human HEK-293 cells transfected with ISRE-luciferase reporter gene assessed as increase in IFN-alpha mediated cellular response after 24 hrs by luciferase reporter gene assay
Settings: read-out: EC50

Row | Compound | EC50 [µM]
2 | CC1(c2ccccc2)OC(=O)c2c1ccn(C1CC1)c2=O (stereo not given) | 27

Same assay, conditions: read-out: pEC50 (converted)

Row | Compound | EC50 [µM]
3 | O=C1OC2(CCCCC2)c2ccn(C3CCCCC3)c(=O)c21 | > 158
4 | O=C1OC2(CCCC2)c2ccn(C3CC3)c(=O)c21 | 52.5
5 | CC1(C)OC(=O)c2c1ccnc2O | > 158
6 | O=C1OC2(CCCCC2)c2ccn(CC3CC3)c(=O)c21 | > 158
7 | O=C1OC2(CCCCC2)c2ccnc(O)c21 | > 158
8 | CC(C)n1ccc2c(c1=O)C(=O)OC21CCCCC1 | > 158
9 | O=C1OC2(CCCCC2)c2ccn(C3CCC3)c(=O)c21 | > 158
10 | CCC1(C)OC(=O)c2c1ccn(C1CC1)c2=O (stereo not given) | > 158
11 | Cn1ccc2c(c1=O)C(=O)OC21CCCCC1 | > 158
12 | O=C1OC2(CCCCC2)c2ccn(C3CCCC3)c(=O)c21 | > 158
13 | CC1=C(C(=O)NC2CC2)C(=O)OC12CCCCC2 | > 158
14 | CC1(C)OC(=O)c2c1ccn(C1CC1)c2=O | > 158
15 | CCC1(CC)OC(=O)c2c1ccn(C1CC1)c2=O | > 158
